Key:
NCX3 = tested on: NCX3; parameters: method as in PMID 9688596; details: cited from earlier work
[1] = tested on: STZ-treated rats with neuropathy; assay: Mortality and adverse effects during chronic oral treatment; type: in vivo; details: rat, in vivo, po
Description: Three animals per cage were housed for the experiment 2 (Fig. 3B). Rats were gently manipulated daily before undertaking the actual behavior tests. One week after adaptation, the Randl-Stellito (R–S) test, cold plate test (CPT), and formalin tests (FT) were performed at baseline. After that, the diabetes model was made with 48 rats. Twelve animals served as controls. Body weight (BW), coat score (CS), CPT, R–S, and FT were evaluated on day 28th post-STZ, and after that, rats were distributed into the treatment groups as follows. • C-Veh – Controls, vehiculum treatment (n = 12) • NP-Veh – STZ-treated rats with neuropathy, vehiculum treatment (n = 12) • NP-KB-R7943 – 5 mg - STZ-treated rats, with neuropathy, KB-R7943 5 mg/kg treatment (n = 12) • NP-KB-R7943 – 10 mg – STZ-treated rats, with neuropathy, KB-R7943 10 mg/kg (n = 12) • NP-AMT – 10 mg - STZ-treated rats, with neuropathy, amitriptyline 10 mg/kg (n = 12).
OraPlus was used as a vehiculum for gavage (16 gauge feeding tube 10 ml/kg) in all rats. KB-R7943 in two doses (5 or 10 mg/kg) or amitriptyline 10 mg/kg was applied once daily until day 49. Behavior tests were performed […] after the oral gavage of the corresponding day, in the afternoon, starting from 2 p.m. […] On day 41, an FST was performed, and at 2 p.m., rats were placed individually for 24 h to assess spontaneous physical activity. […]

Compound: N=C(N)SCCc1ccc(OCc2ccc([N+](=O)[O-])cc2)cc1 [KB-R7943, [(2-{4-[(4-nitrophenyl)methoxy]phenyl}ethyl)sulfanyl]methanimidamide]
- potency as inhibitor of NCX3 relative to NCX1 and NCX2 (NCX3): three-fold more potent inhibitor of NCX3 than NCX1 and NCX2
- mortality during treatment [1]: No one rat died

Source: PMC10958225, “Therapeutic potential of orally applied KB-R7943 in streptozotocin-induced neuropathy in rats” (Heliyon, 2024)
